This passage reports EC50 results from patent publication US20190359645A1, “2'3'-CYCLIC DINUCLEOTIDES COMPRISING CARBOCYCLIC NUCLEOTIDE” (Institute of Organic Chemistry and Biochemistry ASCR, V.V.I., priority 2018, published 2019).

In this assay the target is WT STING (Homo sapiens, UniProt Q86WV6, H232R). In words: Digitonin assay using 293T wtSTING-FL reporter cells. The class given is cell-based. The arrangement: host or cells: 293T (ATCC CRL-3216), stably transfected; also carries the 4xISRE firefly luciferase reporter. The conditions noted are these: 293T wtSTING-FL cells, digitonin buffer 30 min, then 5 h, ISRE firefly luciferase reporter; read-out: Digitonin assay EC50 WT STING. The source says:
Two complementary oligonucleotides of the sequence […] […] […] […] (SEQ ID NO: 1) and […] […] (SEQ ID NO:2) containing four interferon-sensitive response elements (ISRE) were synthesized by Sigma Aldrich (Czech Republic, Prague). The oligonucleotides were mixed in equal molar amounts, hybridized, and cleaved by restriction endonucleases HindIII (cat. #. R^0104S, NEB, Ipswich, USA) and BglII (cat. # R^0144S, NEB, Ipswich, USA). Ultimately, they were ligated into plasmid pGL4.27 (cat. # E6651, Promega, Madison, USA) linearized with the same enzymes. As a result, the sequence with four ISRE sites was placed upstream of the minimum promoter of firefly luciferase reporter gene.
293T cells (cat. # CRL-3216, ATCC, Manassas, USA) were seeded a day before transfection at density 125,000 cells per cm^2 onto poly-D-lysine (cat. # P6407, Sigma Aldrich, Czech Republic) coated six well plates in antibiotic free DMEM with high glucose (cat. # D5796, Sigma Aldrich, Czech Republic) supplemented with 10% heat inactivated FBS (cat. # S1520, Biowest, Riverside, USA). On the day of transfection, 2.5 μg of the plasmid pUNO1-hSTING-WT (cat. # punol-hstingwt, InvivoGen, San Diego, USA,) encoding human wild type STING (WT STING) was diluted in 125 μL OptiMEM medium (cat. #31985062, ThermoFisher, Waltham, USA) and mixed with 125 μL of the same medium containing 12.5 μL of Lipofectamine 2000 (cat. #11668019, ThermoFisher, Waltham, USA). After 5 minutes incubation at room temperature (RT), 250 μL of the mixture was added dropwise to the cells in one well. Cells were incubated 36 hours at 37° C. with 5% CO2, and then detached with 0.05% Trypsin and 0.22 g/L EDTA (both cat. # L0941, Biowest, Riverside, USA).
Transfected cells were seeded onto poly-D-lysine coated six well plates at density 50,000 cells per 1 cm^2 in DMEM medium with high glucose containing 10% heat inactivated FBS, […] blasticidin (cat. # ant-bl-05, InvivoGen, San Diego, USA), 0.06 mg/ml Penicillin G and 0.1 mg/ml Streptomycin Sulfate (both cat. #. L0018, Biowest, Riverside, USA). The medium was replenished every 3-4 days until visible colonies of cells resistant to blasticidin were formed.
Blasticidin resistant cells stably expressing WT STING were further transfected with […] plasmid following the same procedure as described above. The transfected cells were selected for the resistance to 300 μg/mL hygromycin (cat. #. 10687010, ThermoFisher, Waltham, USA) in DMEM with high glucose containing 10% heat inactivated FBS, […] blasticidin, 0.06 mg/ml Penicillin G and 0.1 mg/ml Streptomycin Sulfate. Homogeneous culture of stably double transfected cells was prepared by limiting dilution of cells in 96 well plates and wells with cells were selected that originated from a single cell. These cells were expanded, and expression of WT STING was confirmed by western blot using monoclonal mouse anti STING antibodies (cat. #. MAB7169, 1:1000 dilution; […] cat. #. HAF007, 1:2000 dilution, both from R&D Systems, Minneapolis, USA), and by induction of firefly luciferase expression in the presence of 50 μM STING agonist 2′3′ cGAMP (cat. # tlrl-nacga23, InvivoGen, San Diego, USA). Genomic DNA from the transfected cells was amplified with primers pUNO1_Seq_F ([…]) (SEQ ID NO:3) and pUNO1_Seq_R ([…]) (SEQ ID NO:4) that were complementary to pUNO1 plasmid and the presence of WT STING gene in the transfected cells was confirmed by DNA sequencing.
293T wtSTING-FL cells were seeded at density of 250,000 cells per cm^2 onto 96 well poly-D-lysine coated plates in 100 μl DMEM with high glucose supplemented with 10% heat inactivated FBS. […]

Sequence of WT STING (Q86WV6 whole entry H232R): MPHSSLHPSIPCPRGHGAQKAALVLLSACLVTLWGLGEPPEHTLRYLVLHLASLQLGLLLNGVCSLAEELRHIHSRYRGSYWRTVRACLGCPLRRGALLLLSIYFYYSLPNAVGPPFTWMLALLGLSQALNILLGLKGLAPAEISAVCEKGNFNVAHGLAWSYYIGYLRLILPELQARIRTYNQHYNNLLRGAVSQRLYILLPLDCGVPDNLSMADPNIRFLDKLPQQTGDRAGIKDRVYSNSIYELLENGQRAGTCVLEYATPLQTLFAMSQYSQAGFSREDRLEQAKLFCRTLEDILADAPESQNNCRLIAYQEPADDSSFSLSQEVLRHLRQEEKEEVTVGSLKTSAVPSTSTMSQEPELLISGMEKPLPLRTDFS

For the molecule `Nc1nc2c(ncn2[C@@H]2C[C@@H]3COP(=O)(O)OC4C(O)[C@H](n5cnc6c(S)ncnc65)O[C@@H]4COP(=O)(O)OC2C3O)c(=O)[nH]1` (stereo partly drawn) [Compound 107, (6R,8R,15R,17R)-17-(2-amino-6-oxo-6,9-dihydro-1H-purin-9-yl)-3,9,12,18-tetrahydroxy-8-(6-sulfanyl-9H-purin-9-yl)-2,4,7,11,13-pentaoxa-3λ^5,12λ^5-diphosphatricyclo[13.2.1.0^6,10]octadecane-3,12-dione], the EC50 worked out at 6400 nM.

As to `Nc1ncnc2c1c(I)cn2[C@@H]1O[C@@H]2COP(=O)(O)OC3C(O)[C@@H](COP(=O)(O)OC2C1O)C[C@H]3n1cnc2c(=O)[nH]cnc21` (stereo partly drawn) [Compound 124, (6R,8R,15R,17R)-8-{4-amino-5-iodo-7H-pyrrolo[2,3-d]pyrimidin-7-yl}-3,9,12,18-tetrahydroxy-17-(6-oxo-6,9-dihydro-1H-purin-9-yl)-2,4,7,11,13-pentaoxa-3λ^5,12λ^5-diphosphatricyclo[13.2.1.0^6,10]octadecane-3,12-dione], the EC50 is 400 nM.

In the case of `Nc1ncnc2c1ncn2[C@@H]1O[C@@H]2COP(=O)(O)OC3C(O)[C@@H](COP(=O)(O)OC2C1O)C[C@H]3n1cnc2c(=O)[nH]cnc21` (stereo partly drawn) [Compound 121, (6R,8R,15R,17R)-8-(6-amino-9H-purin-9-yl)-3,9,12,18-tetrahydroxy-17-(6-oxo-6,9-dihydro-1H-purin-9-yl)-2,4,7,11,13-pentaoxa-3λ^5,12λ^5-diphosphatricyclo[13.2.1.0^6,10]octadecane-3,12-dione], the EC50 stood at 500 nM.

`Nc1ncc2ncn([C@@H]3O[C@@H]4COP(=O)(O)OC5C(O)[C@@H](COP(=O)(O)OC4C3O)C[C@H]5n3cnc4c(=O)[nH]c(N)nc43)c2n1` (stereo partly drawn) [Compound 106, (6R,8R,15R,17R)-17-(2-amino-6-oxo-6,9-dihydro-1H-purin-9-yl)-8-(2-amino-9H-purin-9-yl)-3,9,12,18-tetrahydroxy-2,4,7,11,13-pentaoxa-3λ^5,12λ^5-diphosphatricyclo[13.2.1.0^6,10]octadecane-3,12-dione]: the EC50 was 200 nM.

Turning to `Nc1nc2c(ncn2[C@@H]2C[C@@H]3COP(=O)(O)OC4C(O)[C@H](n5cnc6c(N)ncnc65)O[C@@H]4COP(=O)(O)OC2C3O)c(=O)[nH]1` (stereo partly drawn) [Compound 102, (6R,8R,15R,17R)-17-(2-amino-6-oxo-6,9-dihydro-1H-purin-9-yl)-8-(6-amino-9H-purin-9-yl)-3,9,12,18-tetrahydroxy-2,4,7,11,13-pentaoxa-3λ^5,12λ^5-diphosphatricyclo[13.2.1.0^6,10]octadecane-3,12-dione], the EC50 was found to be 100 nM.

Turning to `Nc1nc2c(ncn2[C@@H]2C[C@@H]3COP(=O)(O)OC4C(O)[C@H](n5cnc6c(N)nc(F)nc65)O[C@@H]4COP(=O)(O)OC2C3O)c(=O)[nH]1` (stereo partly drawn) [Compound 103, (6R,8R,15R,17R)-8-(6-amino-2-fluoro-9H-purin-9-yl)-17-(2-amino-6-oxo-6,9-dihydro-1H-purin-9-yl)-3,9,12,18-tetrahydroxy-2,4,7,11,13-pentaoxa-3λ^5,12λ^5-diphosphatricyclo[13.2.1.0^6,10]octadecane-3,12-dione], the EC50 was 1500 nM.

As to `Nc1ncnc2c1ncn2[C@@H]1O[C@@H]2COP(=O)(S)O[C@@H]3[C@H](F)[C@@H](COP(=O)(S)O[C@H]2[C@H]1F)C[C@H]3n1cnc2c(=O)[nH]cnc21` (single isomer, unassigned) [Compound 128d], the EC50 was 20 nM.

`Nc1ncnc2c1ncn2[C@@H]1O[C@@H]2COP(=O)(S)O[C@@H]3[C@H](F)[C@@H](COP(=O)(S)O[C@H]2[C@H]1F)C[C@H]3n1cnc2c(=O)[nH]cnc21` (single isomer, unassigned) [Compound 128a]: the 50% effective concentration (EC50) turned out to be 40 nM.

Take `Nc1ncnc2c1ccn2[C@@H]1O[C@@H]2COP(=O)(O)OC3C(O)[C@@H](COP(=O)(O)OC2C1O)C[C@H]3n1cnc2c(=O)[nH]cnc21` (stereo partly drawn) [Compound 122, (6R,8R,15R,17R)-8-{4-amino-7H-pyrrolo[2,3-d]pyrimidin-7-yl}-3,9,12,18-tetrahydroxy-17-(6-oxo-6,9-dihydro-1H-purin-9-yl)-2,4,7,11,13-pentaoxa-3λ^5,12λ^5-diphosphatricyclo[13.2.1.0^6,10]octadecane-3,12-dione]: the EC50 came out at 140 nM.

On to `Nc1ncnc2c1ncn2[C@@H]1O[C@@H]2COP(=O)(O)OC3C(O)[C@@H](COP(=O)(O)OC2C1O)C[C@H]3n1cnc2c(=O)[nH]cnc21` (stereo partly drawn) [Compound 120, (6R,8R,15R,17R)-8-(6-amino-9H-purin-9-yl)-3,9,12,18-tetrahydroxy-17-(6-oxo-6,9-dihydro-1H-purin-9-yl)-2,4,7,11,13-pentaoxa-3λ^5,12λ^5-diphosphatricyclo[13.2.1.0^6,10]octadecane-3,12-dione], for which the EC50 turned out to be 30 nM.

Take `CSc1ncnc2c1ncn2[C@@H]1O[C@@H]2COP(=O)(O)OC3C(O)[C@@H](COP(=O)(O)OC2C1O)C[C@H]3n1cnc2c(=O)[nH]cnc21` (stereo partly drawn) [Compound 125, (1S,6R,8R,9R,10S,15R,17R,18R)-3,9,12,18-tetrahydroxy-8-[16-(methylsulfanyl)-9H-purin-9-yl]-17-(6-oxo-6,9-dihydro-1H-purin-9-yl)-2,4,7,11,13-pentaoxa-3λ^5,12λ^5-diphosphatricyclo[13.2.1.0^6,10]octadecane-3,12-dione]: the EC50 came to 210 nM.

For `Nc1nc2c(ncn2[C@@H]2C[C@@H]3COP(=O)(O)OC4C(F)[C@H](n5cnc6c(N)nc(F)nc65)O[C@@H]4COP(=O)(O)OC2C3O)c(=O)[nH]1` (stereo partly drawn) [Compound 111, (6R,8R,15R,17R)-8-(6-amino-2-fluoro-9H-purin-9-yl)-17-(2-amino-6-oxo-6,9-dihydro-1H-purin-9-yl)-9-fluoro-3,12,18-trihydroxy-2,4,7,11,13-pentaoxa-3λ^5,12λ^5-diphosphatricyclo[13.2.1.0^6,10]octadecane-3,12-dione], the EC50 turned out to be 30 nM.

For `CNc1ncnc2c1ncn2[C@@H]1O[C@@H]2COP(=O)(O)OC3C(O)[C@@H](COP(=O)(O)OC2C1O)C[C@H]3n1cnc2c(=O)[nH]c(N)nc21` (stereo partly drawn) [Compound 108, (6R,8R,15R,17R)-17-(2-amino-6-oxo-6,9-dihydro-1H-purin-9-yl)-3,9,12,18-tetrahydroxy-8-[6-(methylamino)-9H-purin-9-yl]-2,4,7,11,13-pentaoxa-3λ^5,12λ^5-diphosphatricyclo[13.2.1.0^6,10]octadecane-3,12-dione], the EC50 turned out to be 170 nM.

As to `Nc1nc2c(ncn2[C@@H]2C[C@@H]3COP(=O)(O)OC4C(O)[C@H](n5cnc6c(Cl)ncnc65)O[C@@H]4COP(=O)(O)OC2C3O)c(=O)[nH]1` (stereo partly drawn) [Compound 115, (6R,8R,15R,17R)-17-(2-amino-6-oxo-6,9-dihydro-1H-purin-9-yl)-8-(6-chloro-9H-purin-9-yl)-3,9,12,18-tetrahydroxy-2,4,7,11,13-pentaoxa-3λ^5,12λ^5-diphosphatricyclo[13.2.1.0^6,10]octadecane-3,12-dione], the EC50 turned out to be 70 nM.

As to `C#Cc1cn([C@@H]2O[C@@H]3COP(=O)(O)OC4C(O)[C@@H](COP(=O)(O)OC3C2O)C[C@H]4n2cnc3c(=O)[nH]c(N)nc32)c2ncnc(N)c12` (stereo partly drawn) [Compound 114, (6R,8R,15R,17R)-8-{4-amino-5-ethynyl-7H-pyrrolo 2,3-dlpyrimidin-7-yl}-17-(2-amino-6-oxo-6,9-dihydro-1H-purin-9-yl)-3,9,12,18-tetrahydroxy-2,4,7,11,13-pentaoxa-3λ^5,12λ^5-diphosphatricyclo[13.2.1.0^6,10]octadecane-3,12-dione], the EC50 came out at 400 nM.
